Measured values as given in US10758534B2 (Vertex Pharmaceuticals Incorporated, priority 2014, dated 2020).

Molecular target: T1, F508del (Homo sapiens, UniProt P13569, DEL508-508)
T1 construct: expressed in transfected cells
Test: Protocol 1: membrane potential optical assay (FLIPR III, voltage sensing dye), identification of potentiator compounds
Format: cell-based
Conditions: Table 3, compounds of Table 1
Method in brief: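 Mouse NIH 3T3 fibroblasts stably expressing F508del, temperature-corrected at 27 °C for 24 h, pretreated with compound, then loaded with voltage-sensing redistribution dye. Forskolin was added in a single step with a chloride gradient (chloride-free gluconate bath; Bath Solution #1 HEPES pH 7.4). Membrane-potential fluorescence read on FLIPR III.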

T1 sequence (P13569 with tags, fused parts or gaps DEL508-508): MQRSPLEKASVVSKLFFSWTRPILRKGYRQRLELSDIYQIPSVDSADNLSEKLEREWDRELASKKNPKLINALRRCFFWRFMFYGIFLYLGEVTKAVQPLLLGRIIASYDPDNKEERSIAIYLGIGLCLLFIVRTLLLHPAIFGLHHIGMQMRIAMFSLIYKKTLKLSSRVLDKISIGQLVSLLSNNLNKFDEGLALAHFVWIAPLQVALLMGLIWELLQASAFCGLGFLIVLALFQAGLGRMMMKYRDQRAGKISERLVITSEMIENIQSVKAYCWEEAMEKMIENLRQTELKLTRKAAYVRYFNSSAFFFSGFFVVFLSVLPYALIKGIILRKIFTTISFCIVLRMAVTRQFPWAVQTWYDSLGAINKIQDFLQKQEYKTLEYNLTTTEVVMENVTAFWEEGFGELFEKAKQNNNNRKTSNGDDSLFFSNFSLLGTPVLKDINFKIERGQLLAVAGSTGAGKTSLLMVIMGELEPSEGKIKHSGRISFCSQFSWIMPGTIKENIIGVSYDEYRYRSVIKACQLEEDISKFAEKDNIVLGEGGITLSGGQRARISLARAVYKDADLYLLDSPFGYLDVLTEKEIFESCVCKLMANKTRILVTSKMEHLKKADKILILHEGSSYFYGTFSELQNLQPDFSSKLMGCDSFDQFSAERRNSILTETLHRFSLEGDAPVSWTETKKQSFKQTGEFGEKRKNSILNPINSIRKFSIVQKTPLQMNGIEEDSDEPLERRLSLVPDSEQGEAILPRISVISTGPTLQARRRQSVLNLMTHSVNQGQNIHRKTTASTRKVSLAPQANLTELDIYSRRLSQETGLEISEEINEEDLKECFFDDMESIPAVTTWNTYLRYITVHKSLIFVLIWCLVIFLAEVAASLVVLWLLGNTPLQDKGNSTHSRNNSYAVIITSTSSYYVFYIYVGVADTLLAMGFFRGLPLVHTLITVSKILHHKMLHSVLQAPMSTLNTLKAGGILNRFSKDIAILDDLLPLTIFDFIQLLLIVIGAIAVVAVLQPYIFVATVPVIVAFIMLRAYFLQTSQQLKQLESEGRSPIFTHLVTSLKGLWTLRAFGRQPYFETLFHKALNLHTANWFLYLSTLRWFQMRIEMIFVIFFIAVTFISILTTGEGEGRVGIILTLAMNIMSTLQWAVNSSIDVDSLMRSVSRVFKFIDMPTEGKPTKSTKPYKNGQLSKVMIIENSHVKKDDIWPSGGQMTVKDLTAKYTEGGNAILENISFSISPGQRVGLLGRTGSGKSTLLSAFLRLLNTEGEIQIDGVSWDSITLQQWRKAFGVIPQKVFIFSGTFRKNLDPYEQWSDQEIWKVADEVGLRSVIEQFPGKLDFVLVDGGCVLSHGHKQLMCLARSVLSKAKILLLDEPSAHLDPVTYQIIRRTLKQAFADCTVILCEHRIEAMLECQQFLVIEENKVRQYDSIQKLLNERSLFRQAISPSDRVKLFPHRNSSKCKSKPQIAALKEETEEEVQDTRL

Row | Structure (SMILES) | EC30
1 | Cc1cc(C)c(C(C)N2Cc3ccccc3C2C(=O)NS(=O)(=O)c2cccc(N)n2)c(C)c1 (stereo not drawn) [Compound 1186, N-[(6-amino-2-pyridyl)sulfonyl]-2-[1-(2,4,6-trimethylphenyl)ethyl]isoindoline-1-carboxamide] | +++ (“+++” means <3 uM)
2 | CCCCOc1ccc(-c2ccc(C(=O)NS(=O)(=O)c3ccc[nH]c3=O)c(Oc3c(C)cc(C)cc3C)n2)cc1F [Compound 1187, 6-(4-butoxy-3-fluoro-phenyl)-N-[(2-oxo-1H-pyridin-3-yl)sulfonyl]-2-(2,4,6-trimethylphenoxy)pyridine-3-carboxamide] | +++ (“+++” means <3 uM)
3 | Cc1cc(C)c(Oc2nc(-c3cccc(OC(C)C)c3)ccc2C(=O)NS(=O)(=O)c2ccc[nH]c2=O)c(C)c1 [Compound 1188, 6-(3-isopropoxyphenyl)-N-[(2-oxo-1H-pyridin-3-yl)sulfonyl]-2-(2,4,6-trimethylphenoxy)pyridine-3-carboxamide] | +++ (“+++” means <3 uM)
4 | CC(C)COc1cc(F)cc(-c2ccc(C(=O)NS(=O)(=O)c3cccc(N)n3)c(N3CCC(=O)C3(C)C)n2)c1 [Compound 1189, N-[(6-amino-2-pyridyl)sulfonyl]-2-(2,2-dimethyl-3-oxo-pyrrolidin-1-yl)-6-(3-fluoro-5-isobutoxy-phenyl)pyridine-3-carboxamide] | +++ (“+++” means <3 uM)
5 | CC1(C)CCCc2cc(C(=O)NS(=O)(=O)c3ccc(N)cc3)c(-c3ccccc3)nc21 [Compound 1190, N-(4-aminophenyl)sulfonyl-8,8-dimethyl-2-phenyl-6,7-dihydro-5H-quinoline-3-carboxamide] | +++ (“+++” means <3 uM)
6 | COc1ncc(-c2ccc(C(=O)NS(=O)(=O)c3nccnc3N)c(N3CCC(C)CC3)n2)cc1C [Compound 1191, N-(3-aminopyrazin-2-yl)sulfonyl-6-(6-methoxy-5-methyl-3-pyridyl)-2-(4-methyl-1-piperidyl)pyridine-3-carboxamide] | ++ (“++” means between 3 uM and 10 uM)
7 | CC(C)COc1cc(-c2ccc(C(=O)NS(=O)(=O)c3cccc(N)n3)c(N3CC(C)CC3(C)C)n2)ccn1 (stereo not drawn) [Compound 1192, N-[(6-amino-2-pyridyl)sulfonyl]-6-(2-isobutoxy-4-pyridyl)-2-(2,2,4-trimethylpyrrolidin-1-yl)pyridine-3-carboxamide] | +++ (“+++” means <3 uM)
8 | CC(C)COc1cc(F)cc(-c2ccc(C(=O)NS(=O)(=O)c3cccc(N)n3)c(N3CCC[C@H](C)C3)n2)c1 [Compound 1193, N-[(6-amino-2-pyridyl)sulfonyl]-6-(3-fluoro-5-isobutoxy-phenyl)-2-[(3S)-3-methyl-1-piperidyl]pyridine-3-carboxamide] | +++ (“+++” means <3 uM)
9 | CC(C)COc1ccc(F)c(-c2ccc(C(=O)NS(=O)(=O)c3cccc(N)n3)c(N3CC(C)CC3(C)C)n2)c1 (stereo not drawn) [Compound 1194, N-[(6-amino-2-pyridyl)sulfonyl]-6-(2-fluoro-5-isobutoxy-phenyl)-2-(2,2,4-trimethylpyrrolidin-1-yl)pyridine-3-carboxamide] | +++ (“+++” means <3 uM)
10 | CC1CCN(c2nc3c(cc2C(=O)NS(=O)(=O)c2ccc[nH]c2=O)CCCC3(C)C)CC1 [Compound 1195, 8,8-dimethyl-2-(4-methyl-1-piperidyl)-N-[(2-oxo-1H-pyridin-3-yl)sulfonyl]-6,7-dihydro-5H-quinoline-3-carboxamide] | + (“+” means greater than 10 uM)
11 | Cc1ccc(-c2ccc(C(=O)NS(=O)(=O)c3cccc(N)n3)c(NCC3(C)CCOCC3)n2)cc1 [Compound 1196, N-[(6-amino-2-pyridyl)sulfonyl]-2-[(4-methyltetrahydropyran-4-yl)methylamino]-6-(p-tolyl)pyridine-3-carboxamide] | ++ (“++” means between 3 uM and 10 uM)
12 | CC(C)COc1cc(-c2ccc(C(=O)NS(=O)(=O)c3cccc(N)n3)c(N3[C@H](C)CC[C@@H]3C)n2)ccc1Cl [Compound 1197, N-[(6-amino-2-pyridyl)sulfonyl]-6-(4-chloro-3-isobutoxy-phenyl)-2-[(2S,5R)-2,5-dimethylpyrrolidin-1-yl]pyridine-3-carboxamide] | +++ (“+++” means <3 uM)
13 | CC(C)Oc1ccc(-c2ccc(C(=O)NS(=O)(=O)c3cccc(N)n3)c(N3[C@H](C)CC[C@H]3C)n2)cn1 [Compound 1198, N-[(6-amino-2-pyridyl)sulfonyl]-2-[(2R,5R)-2,5-dimethylpyrrolidin-1-yl]-6-(6-isopropoxy-3-pyridyl)pyridine-3-carboxamide] | +++ (“+++” means <3 uM)
14 | Cc1cc(C)c(Oc2nc3c(cc2C(=O)NS(=O)(=O)c2ccc[nH]c2=O)CCC(C)(C)C3)c(C)c1 [Compound 1199, 7,7-dimethyl-N-[(2-oxo-1H-pyridin-3-yl)sulfonyl]-2-(2,4,6-trimethylphenoxy)-6,8-dihydro-5H-quinoline-3-carboxamide] | ++ (“++” means between 3 uM and 10 uM)
15 | CCOC1CCN(c2nc(C(C)(C)C)ccc2C(=O)NS(=O)(=O)c2cccc(N)n2)CC1 [Compound 1200, N-[(6-amino-2-pyridyl)sulfonyl]-6-tert-butyl-2-(4-ethoxy-1-piperidyl)pyridine-3-carboxamide] | ++ (“++” means between 3 uM and 10 uM)
16 | Cc1cc(C)c(Oc2nc(-c3cc(OCC(C)C)ccc3Cl)ccc2C(=O)NS(=O)(=O)c2ccc[nH]c2=O)c(C)c1 [Compound 1201, 6-(2-chloro-5-isobutoxy-phenyl)-N-[(2-oxo-1H-pyridin-3-yl)sulfonyl]-2-(2,4,6-trimethylphenoxy)pyridine-3-carboxamide] | +++ (“+++” means <3 uM)
17 | CCCOc1ccc(-c2ccc(C(=O)NS(=O)(=O)c3ccc[nH]c3=O)c(Oc3c(C)cc(C)cc3C)n2)cc1 [Compound 1202, N-[(2-oxo-1H-pyridin-3-yl)sulfonyl]-6-(4-propoxyphenyl)-2-(2,4,6-trimethylphenoxy)pyridine-3-carboxamide] | +++ (“+++” means <3 uM)
18 | CCOc1ccc(-c2ccc(C(=O)NS(=O)(=O)c3nccnc3N)c(NCC3(C)CCOCC3)n2)cc1 [Compound 1203, N-(3-aminopyrazin-2-yl)sulfonyl-6-(4-ethoxyphenyl)-2-[(4-methyltetrahydropyran-4-yl)methylamino]pyridine-3-carboxamide] | + (“+” means greater than 10 uM)
19 | Cc1cc(C)c(Oc2nc(-c3ccc(O)cc3C)ccc2C(=O)NS(=O)(=O)c2cccc(N)n2)c(C)c1 [Compound 1204, N-[(6-amino-2-pyridyl)sulfonyl]-6-(4-hydroxy-2-methyl-phenyl)-2-(2,4,6-trimethylphenoxy)pyridine-3-carboxamide] | + (“+” means greater than 10 uM)
20 | CC(C)COc1cc(F)cc(-c2ccc(C(=O)NS(=O)(=O)c3cccc(N)n3)c(N(C)C(C)c3cccc(Cl)c3)n2)c1 (stereo not drawn) [Compound 1205, N-[(6-amino-2-pyridyl)sulfonyl]-2-[1-(3-chlorophenyl)ethyl-methyl-amino]-6-(3-fluoro-5-isobutoxy-phenyl)pyridine-3-carboxamide] | +++ (“+++” means <3 uM)
21 | CC(C)Oc1ccc(-c2ccc(C(=O)NS(=O)(=O)c3cccc(N)n3)c(N3CCC(C(C)(C)C)C3)n2)cn1 (stereo not drawn) [Compound 1206, N-[(6-amino-2-pyridyl)sulfonyl]-2-(3-tert-butylpyrrolidin-1-yl)-6-(6-isopropoxy-3-pyridyl)pyridine-3-carboxamide] | ++ (“++” means between 3 uM and 10 uM)
